{"source": "PubChem BioAssay (NCI)", "test_in_all_cases": "inhibition of tumour cell growth, NCI panel, 384-well format", "key": {"[1]": {"test_system": "HCC-2998 colon"}, "[2]": {"test_system": "SF-539 CNS"}, "[3]": {"test_system": "SNB-75 CNS"}, "[4]": {"test_system": "SNB-19 CNS"}, "[5]": {"test_system": "NCI-H322M lung"}, "[6]": {"test_system": "BT-549 breast"}, "[7]": {"test_system": "HL-60(TB) leukemia"}, "[8]": {"test_system": "CAKI-1 renal"}, "[9]": {"test_system": "HCT-15 colon"}, "[10]": {"test_system": "NCI-H460 NSCLC"}, "[11]": {"test_system": "HS 578T breast"}, "[12]": {"test_system": "UO-31 renal"}, "[13]": {"test_system": "ACHN renal"}, "[14]": {"test_system": "M14 melanoma"}, "[15]": {"test_system": "NCI-H522 lung"}, "[16]": {"test_system": "SF-268 CNS"}, "[17]": {"test_system": "RPMI-8226 leukemia"}, "[18]": {"test_system": "NCI/ADR-RES ovarian"}, "[19]": {"test_system": "MOLT-4 leukemia"}, "[20]": {"test_system": "OVCAR-3 ovarian"}, "[21]": {"test_system": "T-47D breast"}, "[22]": {"test_system": "SK-MEL-5 melanoma"}, "[23]": {"test_system": "SN12C renal"}, "[24]": {"test_system": "UACC-257 melanoma"}, "[25]": {"test_system": "MDA-MB-468 breast"}, "[26]": {"test_system": "KM12 colon"}, "[27]": {"test_system": "COLO 205 colon"}, "[28]": {"test_system": "NCI-H23 lung"}, "[29]": {"test_system": "SK-MEL-28 melanoma"}, "[30]": {"test_system": "MALME-3M melanoma"}, "[31]": {"test_system": "CCRF-CEM leukemia"}, "[32]": {"test_system": "RXF 393 renal"}, "[33]": {"test_system": "SR leukemia"}, "[34]": {"test_system": "IGROV1 ovarian"}, "[35]": {"test_system": "EKVX NSCLC"}, "[36]": {"test_system": "MDA-MB-435 melanoma"}, "[37]": {"test_system": "UACC-62 melanoma"}, "[38]": {"test_system": "OVCAR-4 ovarian"}}, "note": "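GI50: concentration for 50% inhibition of growth. The concentration for full growth arrest is given as TGI.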"}
{"smiles": "CC(=O)N[C@@H]1CCC[C@H](C(=O)Nc2cc(-c3cnn4c3CC(C)(C)C4)c(Cl)cn2)C1", "values": [{"measurement": "GI50", "setting": "[1]", "value": "< 10", "unit": "nM"}, {"measurement": "TGI", "setting": "[1]", "value": 13.9, "unit": "nM"}, {"measurement": "GI50", "setting": "[2]", "value": "< 10", "unit": "nM"}, {"measurement": "TGI", "setting": "[2]", "value": "< 10", "unit": "nM"}, {"measurement": "GI50", "setting": "[3]", "value": "< 10", "unit": "nM"}, {"measurement": "TGI", "setting": "[3]", "value": 26.7, "unit": "nM"}, {"measurement": "GI50", "setting": "[4]", "value": "< 10", "unit": "nM"}, {"measurement": "TGI", "setting": "[4]", "value": "> 100000", "unit": "nM"}, {"measurement": "GI50", "setting": "[5]", "value": "< 10", "unit": "nM"}, {"measurement": "TGI", "setting": "[5]", "value": "< 10", "unit": "nM"}, {"measurement": "GI50", "setting": "[6]", "value": "< 10", "unit": "nM"}, {"measurement": "TGI", "setting": "[6]", "value": "< 10", "unit": "nM"}, {"measurement": "GI50", "setting": "[7]", "value": "< 10", "unit": "nM"}, {"measurement": "TGI", "setting": "[7]", "value": "< 10", "unit": "nM"}, {"measurement": "GI50", "setting": "[8]", "value": "< 10", "unit": "nM"}, {"measurement": "TGI", "setting": "[8]", "value": "> 100000", "unit": "nM"}, {"measurement": "GI50", "setting": "[9]", "value": "< 10", "unit": "nM"}, {"measurement": "TGI", "setting": "[9]", "value": 21800, "unit": "nM"}, {"measurement": "GI50", "setting": "[10]", "value": "< 10", "unit": "nM"}, {"measurement": "TGI", "setting": "[10]", "value": 313, "unit": "nM"}, {"measurement": "GI50", "setting": "[11]", "value": "< 10", "unit": "nM"}, {"measurement": "TGI", "setting": "[11]", "value": "< 10", "unit": "nM"}, {"measurement": "GI50", "setting": "[12]", "value": 24.5, "unit": "nM"}, {"measurement": "TGI", "setting": "[12]", "value": "> 100000", "unit": "nM"}, {"measurement": "GI50", "setting": "[13]", "value": "< 10", "unit": "nM"}, {"measurement": "TGI", "setting": "[13]", "value": "> 100000", "unit": "nM"}, {"measurement": "GI50", "setting": "[14]", "value": "< 10", "unit": "nM"}, {"measurement": "TGI", "setting": "[14]", "value": "< 10", "unit": "nM"}, {"measurement": "GI50", "setting": "[15]", "value": 14.8, "unit": "nM"}, {"measurement": "TGI", "setting": "[15]", "value": 36, "unit": "nM"}, {"measurement": "GI50", "setting": "[16]", "value": "< 10", "unit": "nM"}, {"measurement": "TGI", "setting": "[16]", "value": "< 10", "unit": "nM"}, {"measurement": "GI50", "setting": "[17]", "value": "< 10", "unit": "nM"}, {"measurement": "TGI", "setting": "[17]", "value": "< 10", "unit": "nM"}, {"measurement": "GI50", "setting": "[18]", "value": 152, "unit": "nM"}, {"measurement": "TGI", "setting": "[18]", "value": 620, "unit": "nM"}, {"measurement": "GI50", "setting": "[19]", "value": "< 10", "unit": "nM"}, {"measurement": "TGI", "setting": "[19]", "value": "< 10", "unit": "nM"}, {"measurement": "GI50", "setting": "[20]", "value": "< 10", "unit": "nM"}, {"measurement": "TGI", "setting": "[20]", "value": "< 10", "unit": "nM"}, {"measurement": "GI50", "setting": "[21]", "value": "< 10", "unit": "nM"}, {"measurement": "TGI", "setting": "[21]", "value": "> 100000", "unit": "nM"}, {"measurement": "GI50", "setting": "[22]", "value": "< 10", "unit": "nM"}, {"measurement": "TGI", "setting": "[22]", "value": "< 10", "unit": "nM"}, {"measurement": "GI50", "setting": "[23]", "value": "< 10", "unit": "nM"}, {"measurement": "TGI", "setting": "[23]", "value": 14, "unit": "nM"}, {"measurement": "GI50", "setting": "[24]", "value": "< 10", "unit": "nM"}, {"measurement": "TGI", "setting": "[24]", "value": 21.9, "unit": "nM"}, {"measurement": "GI50", "setting": "[25]", "value": "< 10", "unit": "nM"}, {"measurement": "TGI", "setting": "[25]", "value": "< 10", "unit": "nM"}, {"measurement": "GI50", "setting": "[26]", "value": "< 10", "unit": "nM"}, {"measurement": "TGI", "setting": "[26]", "value": "< 10", "unit": "nM"}, {"measurement": "GI50", "setting": "[27]", "value": "< 10", "unit": "nM"}, {"measurement": "TGI", "setting": "[27]", "value": "< 10", "unit": "nM"}, {"measurement": "GI50", "setting": "[28]", "value": "< 10", "unit": "nM"}, {"measurement": "TGI", "setting": "[28]", "value": 10.3, "unit": "nM"}, {"measurement": "GI50", "setting": "[29]", "value": "< 10", "unit": "nM"}, {"measurement": "TGI", "setting": "[29]", "value": 11.4, "unit": "nM"}, {"measurement": "GI50", "setting": "[30]", "value": "< 10", "unit": "nM"}, {"measurement": "TGI", "setting": "[30]", "value": 14.4, "unit": "nM"}, {"measurement": "GI50", "setting": "[31]", "value": "< 10", "unit": "nM"}, {"measurement": "TGI", "setting": "[31]", "value": "< 10", "unit": "nM"}, {"measurement": "GI50", "setting": "[32]", "value": "< 10", "unit": "nM"}, {"measurement": "TGI", "setting": "[32]", "value": "< 10", "unit": "nM"}, {"measurement": "GI50", "setting": "[33]", "value": "< 10", "unit": "nM"}, {"measurement": "TGI", "setting": "[33]", "value": "< 10", "unit": "nM"}, {"measurement": "GI50", "setting": "[34]", "value": "< 10", "unit": "nM"}, {"measurement": "TGI", "setting": "[34]", "value": "> 100000", "unit": "nM"}, {"measurement": "GI50", "setting": "[35]", "value": "< 10", "unit": "nM"}, {"measurement": "TGI", "setting": "[35]", "value": 39.6, "unit": "nM"}, {"measurement": "GI50", "setting": "[36]", "value": "< 10", "unit": "nM"}, {"measurement": "TGI", "setting": "[36]", "value": 44.3, "unit": "nM"}, {"measurement": "GI50", "setting": "[37]", "value": "< 10", "unit": "nM"}, {"measurement": "TGI", "setting": "[37]", "value": "< 10", "unit": "nM"}, {"measurement": "GI50", "setting": "[38]", "value": "< 10", "unit": "nM"}, {"measurement": "TGI", "setting": "[38]", "value": 18.3, "unit": "nM"}]}
